Measured values reported in the Kinase Knowledgebase extract (Sharma et al. 2016).
pEC50, pIC50, pKi: −log10 of the molar value. One block for each compound: values may come before it.

Tests used:
EGFR (human) [1] = molecular target: EGFR (human) (UniProt P00533); conditions: a431
CDK2 (human) [2] = molecular target: CDK2 (human) (UniProt P24941)
EGFR [3] = molecular target: EGFR (UniProt P00533)
CDK2 = CDK2 (UniProt P24941); experiment: Enzyme Assay
EGFR [4] = molecular target: EGFR (UniProt P00533); remark: listed apart in the source
EGFR [5] = molecular target: EGFR (UniProt P00533); remark: listed apart in the source
EGFR (human) [6] = molecular target: EGFR (human) (UniProt P00533); conditions: difi
EGFR (human) [7] = molecular target: EGFR (human) (UniProt P00533)
EGFR (human) [8] = molecular target: EGFR (human) (UniProt P00533); conditions: A431
EGFR (human) [9] = molecular target: EGFR (human) (UniProt P00533); remark: listed apart in the source
EGFR (murine) [10] = molecular target: EGFR (murine) (UniProt P00533); conditions: nih3t3
EGFR (human) [11] = molecular target: EGFR (human) (UniProt P00533); conditions: a431; remark: listed apart in the source
EGFR (human) [12] = molecular target: EGFR (human) (UniProt P00533); conditions: kb
EGFR (human) [13] = molecular target: EGFR (human) (UniProt P00533); remark: listed apart in the source
[14] = test system: EGFR (murine), P00533 [Antiproliferation of 32D/EGFRvIII Cells]
EGFR (mouse) = EGFR (mouse) (UniProt P00533); conditions: mk
EGFR (murine) [15] = molecular target: EGFR (murine) (UniProt P00533); conditions: 32 d
EGFR [16] = molecular target: EGFR (UniProt P00533); conditions: concentration not given here
EGFR (human) [17] = molecular target: EGFR (human) (UniProt P00533); conditions: kb; remark: listed apart in the source
EGFR (human) [18] = molecular target: EGFR (human) (UniProt P00533); remark: listed apart in the source
EGFR (human) [19] = molecular target: EGFR (human) (UniProt P00533); conditions: huvec
ROCK2 (bovine) = ROCK2 (bovine) (UniProt Q28021); experiment: Inhibition of RHO-Associated Coiled-Coil-Containing Protein Kinase 2 Activity
EGFR (human) [20] = molecular target: EGFR (human) (UniProt P00533); conditions: hn5
EGFR (human) [21] = molecular target: EGFR (human) (UniProt P00533); remark: listed apart in the source
CDK2 (human) [22] = molecular target: CDK2 (human) (UniProt P24941); remark: listed apart in the source
CDK2 (human) [23] = molecular target: CDK2 (human) (UniProt P24941); remark: listed apart in the source
EGFR (human) [24] = molecular target: EGFR (human) (UniProt P00533); conditions: nih3t3
EGFR (human) [25] = molecular target: EGFR (human) (UniProt P00533); conditions: a431; remark: listed apart in the source
EGFR (human) [26] = molecular target: EGFR (human) (UniProt P00533); remark: listed apart in the source
ROCK2 (human) [27] = molecular target: ROCK2 (human) (UniProt O75116); experiment: Assessment of ROCK2 Kinase Acitvity
EGFR [28] = molecular target: EGFR (UniProt P00533); conditions: concentration not given here; remark: listed apart in the source
EGFR [29] = molecular target: EGFR (UniProt P00533); remark: listed apart in the source
EGFR (human) [30] = molecular target: EGFR (human) (UniProt P00533); conditions: concentration not given here
ROCK2 (human) [31] = molecular target: ROCK2 (human) (UniProt O75116); experiment: Inhibition of ROCK2 Kinase Activity; conditions: concentration not given here
EGFR (human) [32] = molecular target: EGFR (human) (UniProt P00533); remark: listed apart in the source
CDK2 (human) [33] = molecular target: CDK2 (human) (UniProt P24941); experiment: Enzyme Assay; conditions: concentration not given here

Sequence of EGFR (human) (P00533 whole entry, looked up): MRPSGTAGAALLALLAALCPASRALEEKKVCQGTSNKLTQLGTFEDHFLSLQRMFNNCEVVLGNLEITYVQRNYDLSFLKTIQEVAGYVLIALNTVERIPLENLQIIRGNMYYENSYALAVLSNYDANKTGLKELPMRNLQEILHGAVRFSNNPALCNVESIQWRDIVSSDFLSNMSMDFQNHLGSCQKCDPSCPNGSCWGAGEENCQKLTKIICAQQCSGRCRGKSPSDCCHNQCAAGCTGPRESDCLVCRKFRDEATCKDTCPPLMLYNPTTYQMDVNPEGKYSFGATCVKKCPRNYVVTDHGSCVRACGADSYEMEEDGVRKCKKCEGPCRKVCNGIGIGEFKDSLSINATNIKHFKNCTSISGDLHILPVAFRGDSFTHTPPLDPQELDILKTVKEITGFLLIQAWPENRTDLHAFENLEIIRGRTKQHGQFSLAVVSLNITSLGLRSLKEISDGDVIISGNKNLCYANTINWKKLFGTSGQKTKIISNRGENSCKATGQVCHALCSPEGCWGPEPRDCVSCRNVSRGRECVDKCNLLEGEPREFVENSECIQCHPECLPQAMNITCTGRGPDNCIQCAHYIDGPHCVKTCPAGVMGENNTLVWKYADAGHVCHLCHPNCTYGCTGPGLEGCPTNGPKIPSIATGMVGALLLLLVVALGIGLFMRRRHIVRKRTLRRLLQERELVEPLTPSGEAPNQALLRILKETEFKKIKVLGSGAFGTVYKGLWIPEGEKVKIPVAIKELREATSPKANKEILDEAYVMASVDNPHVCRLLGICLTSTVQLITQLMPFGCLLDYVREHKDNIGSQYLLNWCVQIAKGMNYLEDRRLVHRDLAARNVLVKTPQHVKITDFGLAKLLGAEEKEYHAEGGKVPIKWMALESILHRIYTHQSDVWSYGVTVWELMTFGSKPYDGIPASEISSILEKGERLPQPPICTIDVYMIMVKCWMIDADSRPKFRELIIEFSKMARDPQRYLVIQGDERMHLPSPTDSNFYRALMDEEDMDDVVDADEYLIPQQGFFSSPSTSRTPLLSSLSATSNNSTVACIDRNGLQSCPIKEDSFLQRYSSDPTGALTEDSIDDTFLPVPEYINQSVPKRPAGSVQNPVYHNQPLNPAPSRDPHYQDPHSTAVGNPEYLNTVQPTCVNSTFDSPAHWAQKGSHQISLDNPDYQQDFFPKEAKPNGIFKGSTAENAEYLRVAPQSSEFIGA
Sequence of EGFR (P00533 whole entry, looked up): as above
Sequence of ROCK2 (human) (O75116 whole entry, looked up): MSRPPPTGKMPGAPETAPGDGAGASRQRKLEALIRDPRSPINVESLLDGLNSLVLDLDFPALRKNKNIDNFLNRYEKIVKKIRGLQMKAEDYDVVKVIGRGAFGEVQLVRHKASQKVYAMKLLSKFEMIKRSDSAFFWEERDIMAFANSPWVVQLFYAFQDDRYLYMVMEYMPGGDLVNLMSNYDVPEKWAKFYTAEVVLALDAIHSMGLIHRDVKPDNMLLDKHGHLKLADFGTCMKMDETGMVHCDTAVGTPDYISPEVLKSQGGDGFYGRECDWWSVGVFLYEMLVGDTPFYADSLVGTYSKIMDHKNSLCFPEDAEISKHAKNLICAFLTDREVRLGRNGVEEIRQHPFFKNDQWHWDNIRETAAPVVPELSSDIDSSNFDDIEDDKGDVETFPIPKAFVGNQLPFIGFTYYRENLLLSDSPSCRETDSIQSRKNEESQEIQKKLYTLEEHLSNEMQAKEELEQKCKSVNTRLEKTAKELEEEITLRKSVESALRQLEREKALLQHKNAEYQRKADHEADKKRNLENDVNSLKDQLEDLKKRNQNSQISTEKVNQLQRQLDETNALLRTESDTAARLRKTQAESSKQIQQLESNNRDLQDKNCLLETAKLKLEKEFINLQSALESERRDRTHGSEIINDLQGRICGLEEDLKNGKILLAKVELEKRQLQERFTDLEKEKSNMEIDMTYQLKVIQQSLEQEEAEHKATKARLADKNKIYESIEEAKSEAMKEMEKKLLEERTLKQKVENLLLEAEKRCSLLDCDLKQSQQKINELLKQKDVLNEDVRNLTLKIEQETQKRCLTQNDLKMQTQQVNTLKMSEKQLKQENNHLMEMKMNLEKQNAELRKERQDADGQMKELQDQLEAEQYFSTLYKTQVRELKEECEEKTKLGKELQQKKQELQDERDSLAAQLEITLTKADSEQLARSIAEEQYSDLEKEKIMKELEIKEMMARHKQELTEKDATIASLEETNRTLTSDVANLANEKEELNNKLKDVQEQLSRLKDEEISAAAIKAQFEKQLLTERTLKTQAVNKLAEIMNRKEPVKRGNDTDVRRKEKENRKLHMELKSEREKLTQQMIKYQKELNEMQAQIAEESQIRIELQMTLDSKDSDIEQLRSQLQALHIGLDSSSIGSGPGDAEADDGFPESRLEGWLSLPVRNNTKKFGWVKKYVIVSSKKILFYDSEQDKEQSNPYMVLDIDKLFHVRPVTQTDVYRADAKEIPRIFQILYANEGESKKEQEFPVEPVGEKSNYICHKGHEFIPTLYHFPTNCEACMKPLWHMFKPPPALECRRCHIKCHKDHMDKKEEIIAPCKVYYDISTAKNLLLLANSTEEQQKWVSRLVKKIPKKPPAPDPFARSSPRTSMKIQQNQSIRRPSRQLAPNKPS
Sequence of EGFR (murine) (P00533 whole entry, looked up): as the sequence (P00533 whole entry, looked up) above

pIC50 (EGFR (human) [1]): 4.57
Structure (SMILES): O=C1NC(=O)N(CCc2ccccc2)/C1=C/c1ccc(O)cc1

pIC50 (CDK2 (human) [2]): 4.21
Structure (SMILES): NC(=O)c1sc(-c2ccsc2)cc1N

pIC50 (EGFR [3]): 5.10
pIC50 (CDK2): < 5.00
Structure (SMILES): COc1cc(OC)c(/C=C/S(=O)(=O)Cc2ccc(OC)c(NC(C)C(=O)O)c2)c(OC)c1 (stereo unspecified)

pIC50 (EGFR [4]): 6.49
Structure (SMILES): Fc1cccc(COc2ccc(Nc3ncncc3I)cc2Cl)c1

pIC50 (EGFR [5]): 6.70
Structure (SMILES): CCOC(=O)c1cn2ncnc(Nc3ccc4c(cnn4Cc4ccccc4)c3)c2c1CC

pIC50 (EGFR (human) [6]): 5.21
pIC50 (EGFR (human) [7]): 5.92
Structure (SMILES): COc1cc2c(cc1OC)Oc1ncnc(Oc3ccc(F)c(Cl)c3)c1NC2

pIC50 (EGFR (human) [8]): 7.85
Structure (SMILES): CCc1cc2cccc(C#CCCc3ccccc3)c2cc1CC

pIC50 (EGFR (human) [9]): ≤ 5.30
Structure (SMILES): CN1CCN(c2ccc3[nH]c(-c4cc(-c5ccc(NC(=O)Nc6cccc(Cl)c6)cc5)[nH]n4)nc3c2)CC1

pIC50 (EGFR (murine) [10]): < 4.00
Structure (SMILES): COc1ccccc1Oc1cccc2nc(N)nc(N)c12

pEC50 (EGFR (human) [11]): 6.91
pEC50 (EGFR (human) [12]): 6.65
pIC50 (EGFR (human) [13]): 8.52
Structure (SMILES): CCN(CC)CC1CCN(c2ncc3ncnc(Nc4ccc(F)c(Cl)c4)c3n2)CC1

pIC50 (EGFR (mouse)): 7.25
pIC50 (EGFR (murine) [15]): 6.52
Structure (SMILES): CCN1CCN(Cc2ccc(-c3cc4c(N[C@H](C)c5ccccc5)ncnc4[nH]3)cc2)CC1
pIC50 [14]: 8.00

inhibition (EGFR [16]): 0%
Structure (SMILES): CN1CCN(Cc2ccc(Nc3nc4ncc(C#N)c(Nc5ccc(Oc6ccccc6)cc5)c4s3)cc2)CC1

pIC50 (EGFR (human) [17]): 7.04
pIC50 (EGFR (human) [18]): 8.05
Structure (SMILES): COc1cc2ncnc(Nc3cccc(Cl)c3F)c2cc1CN(C)C1(C(N)=O)CCN(S(C)(=O)=O)CC1

Structure (SMILES): COc1cc2c(Nc3ccc(Br)cc3F)ncnc2cc1OCC1CCN(C(=O)CN(C)C)CC1
pIC50 (EGFR (human) [19]): 7.00

pIC50 (ROCK2 (bovine)): 6.28
Structure (SMILES): CC(C)c1ccc(CN2CCCC(Nc3cccc4cnccc34)C2)cc1 (stereo unspecified)

pEC50 (EGFR (human) [20]): 7.00
Structure (SMILES): NC(=O)O[C@H]1CN[C@H](C#Cc2cc3ncnc(Nc4ccc(OCc5cccc(F)c5)c(Cl)c4)c3s2)C1

pKi (EGFR (human) [21]): 7.36
Structure (SMILES): COc1cc2ncc(C#N)c(Nc3cccc(C)c3)c2cc1OC

pIC50 (CDK2 (human) [22]): 4.08
pIC50 (CDK2 (human) [23]): 5.34
Structure (SMILES): CC(C)n1cnc2c(NCc3ccccc3)nc(NCCCO)nc21

pIC50 (EGFR (human) [24]): < 5.00
Structure (SMILES): Cc1cc(Nc2ncnc3ccc(N4CCOCC4)cc23)ccc1OC1CCN(C(=O)CC(C)(C)C)CC1

pIC50 (EGFR (human) [25]): 7.17
Structure (SMILES): CCOc1cc2ncc(C#N)c(Nc3ccc(OCc4ccccn4)c(Cl)c3)c2cc1NC(=O)/C=C/CNC

pIC50 (EGFR (human) [26]): 7.96
Structure (SMILES): OC[C@H]1CCCN1Cc1ccc(Nc2nc3ncnc(Nc4ccc(F)c(Cl)c4)c3s2)cc1

pIC50 (ROCK2 (human) [27]): > 8.00
Structure (SMILES): NC[C@@](O)(c1ccc(Cl)cc1)c1ccc(-c2cn[nH]c2)cc1

inhibition (EGFR [28]): 14%
Structure (SMILES): CC(C)(C)c1ccc(Nc2nnc(-c3ccc(C(N)=O)cc3)c3ccccc23)cc1

pIC50 (EGFR [29]): < 5.00
Structure (SMILES): c1ccc(-c2cnc(Nc3ccc(OCCN4CCCC4)cc3)s2)cc1

inhibition (EGFR (human) [30]): 11%
Structure (SMILES): N#Cc1cnc2sc(C(=O)Nc3ccc(NCCCN4CCOCC4)cc3)c3c2c1N(c1c(Cl)ccc2c1OCO2)C(=O)N3

inhibition (ROCK2 (human) [31]): -1%
pIC50 (EGFR (human) [32]): < 5.22
inhibition (CDK2 (human) [33]): 7%
Structure (SMILES): CN(C(=O)C1CCCCC1)c1ccc2c(c1)nc(NC(=O)c1cccs1)n2CCC(N)=O
